# Test results reported in ChEMBL document CHEMBL2321810, “QSAR investigation of NaV1.7 active compounds using the SVM/Signature approach and the Bioclipse Modeling platform” (Bioorg Med Chem Lett, 2013).
# Biological target: Sodium channel protein type 9 subunit alpha (Homo sapiens, UniProt Q15858)
# Assay: cell-based
# Chain of Sodium channel protein type 9 subunit alpha (Q15858 whole entry): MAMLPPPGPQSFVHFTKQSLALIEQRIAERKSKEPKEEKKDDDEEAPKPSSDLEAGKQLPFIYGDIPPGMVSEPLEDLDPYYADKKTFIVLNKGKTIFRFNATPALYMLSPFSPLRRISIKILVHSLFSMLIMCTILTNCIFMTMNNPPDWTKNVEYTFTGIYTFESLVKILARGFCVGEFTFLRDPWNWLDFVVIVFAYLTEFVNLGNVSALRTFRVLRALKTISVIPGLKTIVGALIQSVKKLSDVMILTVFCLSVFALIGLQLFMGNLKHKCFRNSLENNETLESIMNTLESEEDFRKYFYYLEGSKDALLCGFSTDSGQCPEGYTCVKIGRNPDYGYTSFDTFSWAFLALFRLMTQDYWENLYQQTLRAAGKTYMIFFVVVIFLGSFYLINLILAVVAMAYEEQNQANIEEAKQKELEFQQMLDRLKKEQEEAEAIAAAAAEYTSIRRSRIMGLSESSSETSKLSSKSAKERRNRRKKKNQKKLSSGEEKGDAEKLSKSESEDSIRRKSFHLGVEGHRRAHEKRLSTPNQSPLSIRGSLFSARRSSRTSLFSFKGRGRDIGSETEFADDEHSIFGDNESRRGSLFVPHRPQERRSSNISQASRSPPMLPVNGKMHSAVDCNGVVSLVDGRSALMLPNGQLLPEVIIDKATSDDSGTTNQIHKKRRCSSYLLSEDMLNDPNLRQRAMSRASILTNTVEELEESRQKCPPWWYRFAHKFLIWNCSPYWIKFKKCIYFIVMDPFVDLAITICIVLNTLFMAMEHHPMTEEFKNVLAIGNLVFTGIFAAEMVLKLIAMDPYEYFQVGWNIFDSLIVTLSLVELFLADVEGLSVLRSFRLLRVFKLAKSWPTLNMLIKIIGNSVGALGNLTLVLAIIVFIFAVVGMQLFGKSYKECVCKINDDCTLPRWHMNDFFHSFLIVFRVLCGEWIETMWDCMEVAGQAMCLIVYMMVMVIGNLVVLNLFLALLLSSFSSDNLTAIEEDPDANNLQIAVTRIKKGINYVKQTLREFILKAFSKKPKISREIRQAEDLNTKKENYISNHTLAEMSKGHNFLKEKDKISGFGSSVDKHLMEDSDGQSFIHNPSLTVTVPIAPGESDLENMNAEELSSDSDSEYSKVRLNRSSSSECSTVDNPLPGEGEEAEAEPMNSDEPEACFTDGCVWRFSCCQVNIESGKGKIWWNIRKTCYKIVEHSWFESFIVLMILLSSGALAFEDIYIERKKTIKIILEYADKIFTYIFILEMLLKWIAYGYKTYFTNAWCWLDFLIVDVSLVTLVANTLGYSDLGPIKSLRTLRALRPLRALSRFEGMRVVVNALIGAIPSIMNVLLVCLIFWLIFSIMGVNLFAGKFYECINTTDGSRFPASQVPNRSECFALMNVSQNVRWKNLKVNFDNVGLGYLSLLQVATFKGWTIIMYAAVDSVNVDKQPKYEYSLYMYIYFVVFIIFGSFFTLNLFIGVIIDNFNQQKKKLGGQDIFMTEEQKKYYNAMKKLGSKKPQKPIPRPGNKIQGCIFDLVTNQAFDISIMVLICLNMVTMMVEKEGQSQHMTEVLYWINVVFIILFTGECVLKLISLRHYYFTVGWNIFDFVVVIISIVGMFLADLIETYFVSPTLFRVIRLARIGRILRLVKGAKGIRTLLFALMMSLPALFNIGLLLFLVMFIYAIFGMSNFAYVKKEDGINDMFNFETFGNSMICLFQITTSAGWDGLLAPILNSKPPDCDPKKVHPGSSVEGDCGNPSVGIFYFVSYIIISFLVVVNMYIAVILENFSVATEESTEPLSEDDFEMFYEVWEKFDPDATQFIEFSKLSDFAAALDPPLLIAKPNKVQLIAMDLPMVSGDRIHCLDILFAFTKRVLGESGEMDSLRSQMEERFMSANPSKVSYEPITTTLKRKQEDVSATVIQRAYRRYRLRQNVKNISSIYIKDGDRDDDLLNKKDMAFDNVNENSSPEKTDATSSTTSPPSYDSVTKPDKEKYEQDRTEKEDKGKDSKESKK
row,SMILES,IC50 [nM]
1,COc1cc(Oc2ccc(S(=O)(=O)Nc3ccc(F)cn3)cc2C#N)ccc1-n1cccn1,3000
2,N#Cc1cc(S(=O)(=O)Nc2nccs2)ccc1Oc1cccc(-n2ccc(C(F)(F)F)n2)c1,930
3,N#Cc1cc(S(=O)(=O)Nc2nncs2)ccc1Oc1ccc(Cl)cc1-c1cc(N2CCOCC2)ncn1,1000
4,CCn1nc(C(F)(F)F)cc1-c1cccc(Oc2ccc(S(=O)(=O)Nc3ccc(F)cn3)cc2C#N)c1,1000
5,N#Cc1cc(S(=O)(=O)Nc2nccs2)ccc1Oc1ccc(-c2cc(C3CC3)n[nH]2)c(Cl)c1,1000
6,N#Cc1cc(S(=O)(=O)Nc2nccs2)ccc1Oc1ccc(-n2cc(C(N)=O)cn2)cc1,1000
7,N#Cc1cc(S(=O)(=O)Nc2cscn2)ccc1Oc1ccc(Cl)cc1-c1ccn(C(F)(F)F)n1,1000
8,Cc1cc(C)n(-c2ccc(Oc3ccc(S(=O)(=O)Nc4nccs4)c(F)c3)cc2)n1,1000
9,N#Cc1cc(SNc2ncns2)ccc1Oc1ccc(F)cc1C1CC1,1000
10,N#Cc1cc(S(=O)(=O)Nc2ncns2)ccc1Oc1ccc(-n2cc(COC(=O)C(F)(F)F)cn2)cc1,1000
11,N#Cc1cc(S(=O)(=O)Nc2ncns2)ccc1Oc1ccc(-n2cc(CO)cn2)cc1,1000
12,N#Cc1cc(S(=O)(=O)Nc2nccs2)ccc1Oc1ccc(-c2cc(C(F)(F)F)n(CCCF)n2)cc1F,1000
13,CC1CN(c2ccc(Oc3ccc(S(=O)(=O)Nc4nccs4)cc3C#N)cc2)C(=O)N1 (stereo not drawn),1000
14,CC(C)C1CN(c2ccc(Oc3ccc(S(=O)(=O)Nc4nccs4)cc3C#N)cc2)C(=O)N1 (stereo not drawn),1000
15,COC(=O)c1cc(Oc2ccc(S(=O)(=O)Nc3nccs3)cc2C#N)ccc1-n1cc(Cl)cn1,1000
16,O=S(=O)(Nc1cscn1)c1cc(Cl)c(Oc2cc(C(F)(F)F)ccc2-c2cncnc2)cc1F,1000
17,Cn1cnnc1-c1cc(Cl)ccc1Oc1ccc(S(=O)(=O)Nc2nccs2)cc1F,1000
18,N#Cc1cc(S(=O)(=O)Nc2ncns2)cc(F)c1Oc1ccc(F)cc1-c1cn[nH]c1,740
19,CCn1nc(C(F)(F)F)cc1-c1ccc(Oc2ccc(S(=O)(=O)Nc3nncs3)cc2C#N)cc1,770
20,CCn1nc(C(F)(F)F)cc1-c1ccc(Oc2ccc(S(=O)(=O)Nc3ncc(F)s3)cc2F)cc1,820
21,Cc1cccc(-c2ccc(OC(C)C)cc2)c1Oc1ccc(S(=O)(=O)Nc2ncns2)cc1C#N,840
22,N#Cc1cc(S(=O)(=O)Nc2nccs2)ccc1Oc1ccc(Cl)cc1-c1ccccn1,580
23,N#Cc1cc(S(=O)(=O)Nc2ncns2)ccc1Oc1ccccc1-c1cccc(F)c1,670
24,CN(C)C(=O)c1cccc(-c2ccccc2)c1Oc1ccc(S(=O)(=O)c2ncns2)cc1C#N,740

row,SMILES,IC50 [nM]
1,N#Cc1cc(S(=O)(=O)Nc2nccs2)ccc1Oc1ccc(Cl)cc1-c1c[nH]nc1C(F)(F)F,430
2,N#Cc1cc(S(=O)(=O)Nc2ncc(F)s2)ccc1Oc1ccccc1-c1ccccc1,530
3,CC(C)(C)OC(=O)N1CCC(c2cc(Cl)ccc2Oc2ccc(S(=O)(=O)Nc3ncns3)cc2C#N)CC1,350
4,N#Cc1cc(S(=O)(=O)Nc2nccs2)ccc1Oc1ccc(-c2cc(C(F)(F)F)ccn2)cc1,370
5,Cc1nn(C(C)(C)C)cc1-c1cc(Cl)ccc1Oc1cc(F)c(S(=O)(=O)Nc2nncs2)cc1Cl,300
6,N#Cc1cc(S(=O)(=O)Nc2ncns2)ccc1Oc1cc(C(F)(F)F)nn1Cc1ccccc1,300
7,CCn1nc(C)c(-c2ccccc2Oc2ccc(S(=O)(=O)Nc3ncns3)cc2C#N)c1C,300
8,CCOCn1nncc1-c1cc(Cl)ccc1Oc1ccc(S(=O)(=O)Nc2nccs2)cc1C#N,300
9,Cn1cnc(-c2cc(Cl)ccc2Oc2ccc(S(=O)(=O)Nc3nccs3)cc2C#N)n1,300
10,O=S(=O)(Nc1cscn1)c1cc(Cl)c(Oc2ccc(C(F)(F)F)cc2-c2cncc(CO)c2)cc1F,300
11,Cn1ncnc1-c1cc(Cl)ccc1Oc1ccc(S(=O)(=O)Nc2ncc(F)s2)cc1C#N,300
12,Cn1nccc1-c1cc(C(F)(F)F)ncc1Oc1ccc(S(=O)(=O)Nc2ncc(Cl)s2)cc1C#N,220
13,N#Cc1cc(S(=O)(=O)Nc2nccs2)ccc1Oc1ccc(F)cc1-c1ccc(F)nc1,230
14,O=S(=O)(Nc1cscn1)c1cc(Cl)c(Oc2cc(C(F)(F)F)ccc2-c2cn[nH]c2)cc1F,260
15,N#Cc1cc(S(=O)(=O)Nc2ncns2)ccc1Oc1ccc(C(F)(F)F)cc1C1=CN(O)CC=C1,110
16,CCn1nccc1-c1cc(F)ccc1Oc1ccc(S(=O)(=O)Nc2nccs2)cc1C#N,90
17,N#Cc1cc(S(=O)(=O)Nc2ncc(Cl)s2)ccc1Oc1ccc(Cl)cc1-c1ccnc(N)c1,97
18,N#Cc1cc(S(=O)(=O)Nc2nncs2)ccc1Oc1ccc(OC(F)(F)F)cc1-c1ccnnc1,100
19,O=S(=O)(Nc1nncs1)c1ccc(Oc2ccc(Cl)cc2-c2ccn[nH]2)c(Cl)c1,50
20,CC(C)(C)OC(=O)n1cc(-c2cc(Cl)ccc2Oc2cc(F)c(S(=O)(=O)Nc3nccs3)cc2F)cn1,56
21,CC(C)(C)OC(=O)n1cc(-c2cc(Cl)ccc2Oc2cc(F)c(S(=O)(=O)Nc3ncc(F)s3)cc2F)cn1,25
22,Nc1cc(-c2cc(Cl)ccc2Oc2cc(F)c(S(=O)(=O)Nc3cscn3)cc2F)ccn1,19
23,NC1=NCN=C1c1cc(Cl)ccc1Oc1cc(F)c(S(=O)(=O)Nc2ccncn2)cc1Cl,21
24,CCN1CC(n2nccc2-c2cc(C(F)(F)F)ccc2Oc2ccc(S(=O)(=O)Nc3cscn3)cc2C#N)C1,22

row,SMILES,IC50 [nM]
1,N#Cc1cc(S(=O)(=O)Nc2ncns2)ccc1Oc1ccc(Cl)cc1-c1ccnn1C1CCC1,12
2,N#Cc1cc(S(=O)(=O)Nc2ncns2)ccc1Oc1ccc(Cl)cc1-c1ccnn1C1CC1,17
3,O=S(=O)(Nc1ncc(Cl)s1)c1cc(Cl)c(Oc2ccc(Cl)cc2C2CNC2)cc1F,10
4,N#Cc1cc(S(=O)(=O)Nc2ncns2)ccc1Oc1ccc(C(F)(F)F)cc1-c1cccnc1,12
5,N#Cc1cc(S(=O)(=O)Nc2ccc(F)cn2)ccc1Oc1ccc(-c2cocn2)cc1,3000
6,COc1cc(-c2ccc(Oc3ccc(S(=O)(=O)Nc4nccs4)cc3)c(F)c2)n(C)n1,2700
7,N#Cc1cc(S(=O)(=O)Nc2ccc(F)cn2)ccc1Oc1ccccc1C1CCCCO1 (stereo not drawn),3000
8,N#Cc1cc(S(=O)(=O)Nc2ccccc2C(F)(F)F)ccc1Oc1ccccc1-c1ccccc1,3000
9,CC(C)Oc1cc(-c2cc(F)ccc2Oc2ccc(S(=O)(=O)Nc3cscn3)cc2C#N)n(C)n1,3000
10,Cc1ccc(NS(=O)(=O)c2ccc(Oc3ccccc3-c3ccccc3)c(C#N)c2)nc1,3000
11,CCc1nnc(C)n1-c1ccc(Oc2ccc(S(=O)(=O)Nc3ccc(F)cn3)cc2C#N)cc1,3000
12,N#Cc1cc(S(=O)(=O)Nc2ccc(F)cn2)ccc1Oc1ccc(-n2ccnc2)cc1,3000
13,Cc1nc(-c2cccc(Oc3ccc(S(=O)(=O)Nc4ccc(F)cn4)cc3C#N)c2)no1,3000
14,Cc1nnc(-c2ccc(Oc3ccc(S(=O)(=O)Nc4ccc(F)cn4)cc3C#N)cc2)o1,3000
15,Cn1nccc1-c1cc(Cl)ccc1Oc1ccc(S(=O)(=O)Nc2ccon2)cc1C#N,1500
16,N#Cc1cc(S(=O)(=O)Nc2ncns2)ccc1Oc1ccc(-c2nc(CO)co2)cc1,1000
17,N#Cc1cc(S(=O)(=O)Nc2nccs2)ccc1Oc1ccc(-n2cc(F)cn2)cc1,1000
18,Cc1cc(-c2ccnn2C)ccc1Oc1ccc(S(=O)(=O)Nc2ncc(F)s2)cc1C#N,1100
19,CC(C)Oc1cc(-c2cc(F)ccc2Oc2ccc(S(=O)(=O)Nc3nccs3)cc2C#N)n(C)n1,1000
20,CCn1nc(-c2ccc(Oc3ccc(S(=O)(=O)Nc4nccs4)cc3C#N)c(F)c2)cc1C(F)(F)F,1000
21,N#Cc1cc(S(=O)(=O)Nc2nccs2)ccc1Oc1cnn(-c2ccc(Cl)cc2)c1,1000
22,N#Cc1cc(S(=O)(=O)Nc2nccs2)ccc1Oc1cnn(-c2ccc(Cl)cc2Cl)c1,1000
23,CCn1nc(C(F)(F)F)cc1-c1ccc(Oc2ccc(S(=O)(=O)Nc3ncccn3)cc2C#N)cc1,1000
24,Cn1ncnc1-c1cc(Cl)ccc1Oc1ccc(S(=O)(=O)Nc2ncc(F)s2)cc1F,1000

row,SMILES,IC50 [nM]
1,CN(C)C(=O)c1cnn(-c2ccc(Oc3ccc(S(=O)(=O)Nc4nccs4)cc3C#N)cc2)c1,1000
2,COCc1cnn(-c2ccc(Oc3ccc(S(=O)(=O)Nc4nccs4)cc3C#N)cc2)c1,1000
3,CN(C)Cc1cnn(-c2ccc(Oc3ccc(S(=O)(=O)Nc4nccs4)cc3C#N)cc2)c1,1000
4,CC(C)(C)NC(=O)c1cnn(-c2ccc(Oc3ccc(S(=O)(=O)Nc4nccs4)cc3C#N)cc2)c1,1000
5,N#Cc1cc(S(=O)(=O)Nc2cscn2)ccc1Oc1ccc(Cl)cc1-n1cnc(C(F)(F)F)c1,1000
6,N#Cc1cc(S(=O)(=O)Nc2cscn2)ccc1Oc1ccc(F)cc1-c1cnn(CC(F)(F)F)c1,1000
7,N#Cc1ccnc(NS(=O)(=O)c2ccc(Oc3ccccc3-c3ccccc3)c(C#N)c2)c1,1000
8,Cn1nccc1-c1cccc(Oc2ccc(S(=O)(=O)Nc3nccs3)cc2C#N)c1,1000
9,COc1cccc(-c2ccc(Oc3ccc(S(=O)(=O)Nc4nccs4)cc3C#N)cc2)n1,1000
10,N#Cc1cc(S(=O)(=O)Nc2nccs2)ccc1Oc1ccc(-c2nccc(C(F)(F)F)n2)cc1,1000
11,N#Cc1cc(S(=O)(=O)Nc2nccs2)ccc1Oc1ccc(-c2cn(CC(F)(F)F)nc2N)cc1,1000
12,Cn1cc(-c2ccc(Oc3ccc(S(=O)(=O)Nc4nccs4)cc3C#N)cc2)c(N)n1,1000
13,N#Cc1cc(S(=O)(=O)Nc2nccs2)ccc1Oc1ccc(N2CCNC2=O)cc1,1000
14,CN1CCN(c2ccc(Oc3ccc(SNc4nccs4)cc3C#N)cc2)C1=O,1000
15,N#Cc1cc(S(=O)(=O)Nc2nccs2)ccc1Oc1ccc(N2CCCC2=O)cc1,1000
16,N#Cc1cc(S(=O)(=O)Nc2nccs2)ccc1Oc1ccc(-n2cccn2)cc1C(F)(F)F,1000
17,N#Cc1cc(S(=O)(=O)Nc2nccs2)ccc1Oc1ccc(-n2cc(Cl)cn2)c(C(=O)O)c1,1000
18,CC(C)(C)n1ccc(-c2cc(F)ccc2Oc2cc(F)c(S(=O)(=O)Nc3cscn3)cc2Cl)n1,1000
19,Nc1nccc(-c2cc(F)ccc2Oc2cc(F)c(S(=O)(=O)Nc3ncc(Cl)s3)cc2F)n1,1000
20,Cc1scnc1NS(=O)(=O)c1cc(Cl)c(Oc2ccc(F)cc2-c2ccnn2C)cc1F,1000
21,Cn1nccc1-c1ccc(Oc2ccc(S(=O)(=O)Nc3nccs3)cc2C#N)cn1,1000
